Tests used:
[1] = molecular target: TRAF2 and NCK-interacting protein kinase (Homo sapiens, UniProt Q9UKE5)
[2] = molecular target: Serine/threonine-protein kinase 38-like (Homo sapiens, UniProt Q9Y2H1)
[3] = molecular target: STE20-like serine/threonine-protein kinase (Homo sapiens, UniProt Q9H2G2)
[4] = molecular target: Receptor tyrosine-protein kinase erbB-2 (Homo sapiens, UniProt P04626)
[5] = molecular target: T1, Phosphorylase b kinase gamma catalytic chain, liver/testis isoform (Homo sapiens, UniProt P15735)
T1 sequence (P15735 whole entry): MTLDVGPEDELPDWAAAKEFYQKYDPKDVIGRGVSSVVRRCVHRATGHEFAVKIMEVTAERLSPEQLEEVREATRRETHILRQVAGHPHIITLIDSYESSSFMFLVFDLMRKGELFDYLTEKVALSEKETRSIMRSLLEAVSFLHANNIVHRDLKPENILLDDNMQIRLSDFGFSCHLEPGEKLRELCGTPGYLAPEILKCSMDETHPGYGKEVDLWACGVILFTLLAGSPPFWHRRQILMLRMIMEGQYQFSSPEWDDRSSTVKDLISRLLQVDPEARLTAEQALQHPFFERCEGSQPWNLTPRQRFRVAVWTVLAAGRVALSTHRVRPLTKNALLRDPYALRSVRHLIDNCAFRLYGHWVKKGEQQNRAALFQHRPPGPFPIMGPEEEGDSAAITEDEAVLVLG

[6] = molecular target: Phosphorylase b kinase gamma catalytic chain, skeletal muscle/heart isoform (Homo sapiens, UniProt Q16816)
Sequence of Phosphorylase b kinase gamma catalytic chain, skeletal muscle/heart isoform (Q16816 whole entry, canonical isoform): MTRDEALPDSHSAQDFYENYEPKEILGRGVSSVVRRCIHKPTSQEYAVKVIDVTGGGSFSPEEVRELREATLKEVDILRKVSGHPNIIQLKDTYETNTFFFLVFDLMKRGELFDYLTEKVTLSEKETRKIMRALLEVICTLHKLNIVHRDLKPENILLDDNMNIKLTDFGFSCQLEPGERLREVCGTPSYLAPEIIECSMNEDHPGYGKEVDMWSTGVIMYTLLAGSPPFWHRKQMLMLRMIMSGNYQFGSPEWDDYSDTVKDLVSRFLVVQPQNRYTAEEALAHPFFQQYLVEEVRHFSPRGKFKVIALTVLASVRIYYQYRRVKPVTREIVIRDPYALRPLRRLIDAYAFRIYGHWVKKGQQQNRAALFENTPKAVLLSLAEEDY

[7] = molecular target: AP2-associated protein kinase 1 (Homo sapiens, UniProt Q2M2I8)
Sequence of AP2-associated protein kinase 1 (Q2M2I8 whole entry): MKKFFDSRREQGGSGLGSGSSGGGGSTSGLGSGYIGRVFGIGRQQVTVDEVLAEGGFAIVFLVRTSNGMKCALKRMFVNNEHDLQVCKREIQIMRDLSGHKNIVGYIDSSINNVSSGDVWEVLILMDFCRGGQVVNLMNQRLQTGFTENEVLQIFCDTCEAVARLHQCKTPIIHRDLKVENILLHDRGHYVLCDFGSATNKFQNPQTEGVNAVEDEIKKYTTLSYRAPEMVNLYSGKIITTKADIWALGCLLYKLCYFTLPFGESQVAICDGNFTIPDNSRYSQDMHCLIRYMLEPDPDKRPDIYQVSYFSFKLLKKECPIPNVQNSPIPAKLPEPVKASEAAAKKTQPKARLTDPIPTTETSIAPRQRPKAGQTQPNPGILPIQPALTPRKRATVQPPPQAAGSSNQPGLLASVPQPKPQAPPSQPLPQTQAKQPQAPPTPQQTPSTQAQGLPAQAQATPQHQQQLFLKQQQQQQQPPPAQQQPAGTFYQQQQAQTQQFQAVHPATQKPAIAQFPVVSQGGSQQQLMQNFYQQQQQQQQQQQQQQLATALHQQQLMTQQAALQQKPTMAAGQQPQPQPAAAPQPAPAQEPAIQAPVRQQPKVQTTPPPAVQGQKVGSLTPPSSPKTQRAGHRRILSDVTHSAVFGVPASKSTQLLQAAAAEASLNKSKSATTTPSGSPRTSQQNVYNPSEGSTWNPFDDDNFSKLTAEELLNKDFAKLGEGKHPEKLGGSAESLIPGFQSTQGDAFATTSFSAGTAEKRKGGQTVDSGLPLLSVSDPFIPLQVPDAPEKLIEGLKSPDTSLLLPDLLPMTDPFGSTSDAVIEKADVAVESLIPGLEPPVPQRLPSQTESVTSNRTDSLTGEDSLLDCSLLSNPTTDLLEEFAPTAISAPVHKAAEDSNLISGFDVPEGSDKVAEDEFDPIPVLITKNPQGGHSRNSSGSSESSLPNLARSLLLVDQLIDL

[8] = molecular target: Mitogen-activated protein kinase kinase kinase kinase 5 (Homo sapiens, UniProt Q9Y4K4)
[9] = molecular target: Tyrosine-protein kinase JAK2 (Homo sapiens, UniProt O60674)
[10] = molecular target: Cyclin-dependent kinase 2 (Homo sapiens, UniProt P24941)
[11] = molecular target: Calcium/calmodulin-dependent protein kinase kinase 2 (Homo sapiens, UniProt Q96RR4)
[12] = molecular target: MAP kinase-interacting serine/threonine-protein kinase 2 (Homo sapiens, UniProt Q9HBH9)
[13] = molecular target: T2, Dual specificity protein kinase TTK (Homo sapiens, UniProt P33981)
T2 sequence (P33981 whole entry): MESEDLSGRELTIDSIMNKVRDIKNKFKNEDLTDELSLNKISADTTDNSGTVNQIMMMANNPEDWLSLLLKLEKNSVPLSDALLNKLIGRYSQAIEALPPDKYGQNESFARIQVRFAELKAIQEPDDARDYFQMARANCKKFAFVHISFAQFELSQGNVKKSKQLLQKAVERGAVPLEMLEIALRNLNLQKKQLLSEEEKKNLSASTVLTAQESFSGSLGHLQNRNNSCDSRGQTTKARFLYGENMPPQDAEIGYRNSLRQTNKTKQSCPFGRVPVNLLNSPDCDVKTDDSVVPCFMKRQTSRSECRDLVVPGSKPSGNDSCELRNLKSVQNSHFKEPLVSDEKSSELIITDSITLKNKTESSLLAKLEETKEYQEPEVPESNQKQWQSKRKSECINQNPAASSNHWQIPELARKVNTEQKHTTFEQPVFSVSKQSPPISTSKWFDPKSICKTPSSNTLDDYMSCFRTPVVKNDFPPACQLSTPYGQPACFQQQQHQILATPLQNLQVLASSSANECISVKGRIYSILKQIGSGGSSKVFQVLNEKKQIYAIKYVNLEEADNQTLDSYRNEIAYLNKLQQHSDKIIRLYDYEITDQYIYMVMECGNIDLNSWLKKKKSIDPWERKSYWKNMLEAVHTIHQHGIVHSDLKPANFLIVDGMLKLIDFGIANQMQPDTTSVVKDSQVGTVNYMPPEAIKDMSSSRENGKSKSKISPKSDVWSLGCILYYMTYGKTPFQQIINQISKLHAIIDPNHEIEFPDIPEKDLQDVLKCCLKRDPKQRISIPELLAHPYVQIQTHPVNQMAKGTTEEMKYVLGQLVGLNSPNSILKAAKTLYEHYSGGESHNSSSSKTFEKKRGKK

[14] = molecular target: T3, Serine/threonine-protein kinase ULK3 (Mus musculus, UniProt Q3U3Q1)
T3 sequence (Q3U3Q1 whole entry): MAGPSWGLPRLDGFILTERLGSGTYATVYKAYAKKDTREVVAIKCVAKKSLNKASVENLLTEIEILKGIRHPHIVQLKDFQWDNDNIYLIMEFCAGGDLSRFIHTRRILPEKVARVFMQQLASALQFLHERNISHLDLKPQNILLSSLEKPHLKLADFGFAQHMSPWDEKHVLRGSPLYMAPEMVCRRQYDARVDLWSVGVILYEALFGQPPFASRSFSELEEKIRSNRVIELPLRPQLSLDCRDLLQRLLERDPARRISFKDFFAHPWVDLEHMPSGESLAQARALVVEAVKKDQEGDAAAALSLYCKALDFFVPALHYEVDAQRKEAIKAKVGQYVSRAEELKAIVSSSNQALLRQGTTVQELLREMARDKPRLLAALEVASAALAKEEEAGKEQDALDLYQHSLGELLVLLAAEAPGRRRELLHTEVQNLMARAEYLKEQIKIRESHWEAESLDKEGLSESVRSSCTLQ

[15] = molecular target: T4, Serine/threonine-protein kinase 17A (Homo sapiens, UniProt Q9UEE5)
T4 sequence (Q9UEE5 whole entry): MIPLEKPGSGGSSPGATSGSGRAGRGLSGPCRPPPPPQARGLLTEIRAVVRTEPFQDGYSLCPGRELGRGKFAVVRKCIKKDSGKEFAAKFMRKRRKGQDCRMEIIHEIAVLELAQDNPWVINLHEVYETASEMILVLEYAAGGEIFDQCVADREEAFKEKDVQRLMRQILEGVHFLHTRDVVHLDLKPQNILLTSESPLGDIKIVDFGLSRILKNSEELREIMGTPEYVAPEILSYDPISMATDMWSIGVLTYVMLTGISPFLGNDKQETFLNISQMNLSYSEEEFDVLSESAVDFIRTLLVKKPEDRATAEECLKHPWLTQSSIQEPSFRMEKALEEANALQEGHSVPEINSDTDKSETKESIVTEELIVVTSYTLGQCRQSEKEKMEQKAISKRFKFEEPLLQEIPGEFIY

[16] = molecular target: Calcium/calmodulin-dependent protein kinase type 1 (Homo sapiens, UniProt Q14012)
[17] = molecular target: Casein kinase I isoform gamma-1 (Homo sapiens, UniProt Q9HCP0)
Sequence of Casein kinase I isoform gamma-1 (Q9HCP0 whole entry, canonical isoform): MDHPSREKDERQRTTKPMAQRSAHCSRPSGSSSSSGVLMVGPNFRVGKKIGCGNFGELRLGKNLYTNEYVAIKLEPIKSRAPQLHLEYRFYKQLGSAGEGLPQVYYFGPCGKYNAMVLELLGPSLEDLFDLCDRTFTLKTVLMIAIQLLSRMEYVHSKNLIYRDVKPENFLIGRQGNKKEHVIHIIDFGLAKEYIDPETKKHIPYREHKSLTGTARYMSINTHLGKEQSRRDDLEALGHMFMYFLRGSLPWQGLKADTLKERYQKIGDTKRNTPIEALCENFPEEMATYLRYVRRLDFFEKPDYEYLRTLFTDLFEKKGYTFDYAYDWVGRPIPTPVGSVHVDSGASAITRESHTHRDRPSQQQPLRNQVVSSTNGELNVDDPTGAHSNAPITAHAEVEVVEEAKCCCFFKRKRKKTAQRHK

Sequence of STE20-like serine/threonine-protein kinase (Q9H2G2 whole entry): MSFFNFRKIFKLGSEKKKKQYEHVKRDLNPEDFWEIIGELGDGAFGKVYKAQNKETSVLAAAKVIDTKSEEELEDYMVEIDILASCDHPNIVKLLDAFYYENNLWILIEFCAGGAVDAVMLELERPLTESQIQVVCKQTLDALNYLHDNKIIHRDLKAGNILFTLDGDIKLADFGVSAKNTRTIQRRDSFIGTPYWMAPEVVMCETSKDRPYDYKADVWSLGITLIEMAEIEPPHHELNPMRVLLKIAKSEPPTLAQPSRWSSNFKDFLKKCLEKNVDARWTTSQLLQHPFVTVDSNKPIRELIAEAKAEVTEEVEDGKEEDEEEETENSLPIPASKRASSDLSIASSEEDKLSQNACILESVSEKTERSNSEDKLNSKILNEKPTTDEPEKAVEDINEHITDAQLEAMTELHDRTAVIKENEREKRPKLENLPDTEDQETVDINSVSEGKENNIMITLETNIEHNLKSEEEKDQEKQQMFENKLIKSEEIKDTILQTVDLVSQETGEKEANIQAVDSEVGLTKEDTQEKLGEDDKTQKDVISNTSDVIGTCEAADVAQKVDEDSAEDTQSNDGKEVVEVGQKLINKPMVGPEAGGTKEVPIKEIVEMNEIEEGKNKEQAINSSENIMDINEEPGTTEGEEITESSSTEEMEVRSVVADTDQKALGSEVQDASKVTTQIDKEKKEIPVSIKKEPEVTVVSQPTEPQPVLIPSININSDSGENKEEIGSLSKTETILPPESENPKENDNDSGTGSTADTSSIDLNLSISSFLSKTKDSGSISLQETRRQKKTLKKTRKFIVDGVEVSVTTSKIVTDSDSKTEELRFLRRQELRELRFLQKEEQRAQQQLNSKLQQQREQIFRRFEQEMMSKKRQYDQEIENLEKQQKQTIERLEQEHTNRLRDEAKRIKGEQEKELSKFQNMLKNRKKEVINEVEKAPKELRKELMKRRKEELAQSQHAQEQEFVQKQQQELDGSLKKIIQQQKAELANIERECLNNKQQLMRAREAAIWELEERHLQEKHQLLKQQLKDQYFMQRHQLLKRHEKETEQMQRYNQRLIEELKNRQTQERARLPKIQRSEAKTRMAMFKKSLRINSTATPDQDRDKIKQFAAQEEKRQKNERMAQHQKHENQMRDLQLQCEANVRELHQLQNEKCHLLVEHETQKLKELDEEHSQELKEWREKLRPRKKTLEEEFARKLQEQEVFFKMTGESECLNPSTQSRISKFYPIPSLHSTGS
Sequence of TRAF2 and NCK-interacting protein kinase (Q9UKE5 whole entry): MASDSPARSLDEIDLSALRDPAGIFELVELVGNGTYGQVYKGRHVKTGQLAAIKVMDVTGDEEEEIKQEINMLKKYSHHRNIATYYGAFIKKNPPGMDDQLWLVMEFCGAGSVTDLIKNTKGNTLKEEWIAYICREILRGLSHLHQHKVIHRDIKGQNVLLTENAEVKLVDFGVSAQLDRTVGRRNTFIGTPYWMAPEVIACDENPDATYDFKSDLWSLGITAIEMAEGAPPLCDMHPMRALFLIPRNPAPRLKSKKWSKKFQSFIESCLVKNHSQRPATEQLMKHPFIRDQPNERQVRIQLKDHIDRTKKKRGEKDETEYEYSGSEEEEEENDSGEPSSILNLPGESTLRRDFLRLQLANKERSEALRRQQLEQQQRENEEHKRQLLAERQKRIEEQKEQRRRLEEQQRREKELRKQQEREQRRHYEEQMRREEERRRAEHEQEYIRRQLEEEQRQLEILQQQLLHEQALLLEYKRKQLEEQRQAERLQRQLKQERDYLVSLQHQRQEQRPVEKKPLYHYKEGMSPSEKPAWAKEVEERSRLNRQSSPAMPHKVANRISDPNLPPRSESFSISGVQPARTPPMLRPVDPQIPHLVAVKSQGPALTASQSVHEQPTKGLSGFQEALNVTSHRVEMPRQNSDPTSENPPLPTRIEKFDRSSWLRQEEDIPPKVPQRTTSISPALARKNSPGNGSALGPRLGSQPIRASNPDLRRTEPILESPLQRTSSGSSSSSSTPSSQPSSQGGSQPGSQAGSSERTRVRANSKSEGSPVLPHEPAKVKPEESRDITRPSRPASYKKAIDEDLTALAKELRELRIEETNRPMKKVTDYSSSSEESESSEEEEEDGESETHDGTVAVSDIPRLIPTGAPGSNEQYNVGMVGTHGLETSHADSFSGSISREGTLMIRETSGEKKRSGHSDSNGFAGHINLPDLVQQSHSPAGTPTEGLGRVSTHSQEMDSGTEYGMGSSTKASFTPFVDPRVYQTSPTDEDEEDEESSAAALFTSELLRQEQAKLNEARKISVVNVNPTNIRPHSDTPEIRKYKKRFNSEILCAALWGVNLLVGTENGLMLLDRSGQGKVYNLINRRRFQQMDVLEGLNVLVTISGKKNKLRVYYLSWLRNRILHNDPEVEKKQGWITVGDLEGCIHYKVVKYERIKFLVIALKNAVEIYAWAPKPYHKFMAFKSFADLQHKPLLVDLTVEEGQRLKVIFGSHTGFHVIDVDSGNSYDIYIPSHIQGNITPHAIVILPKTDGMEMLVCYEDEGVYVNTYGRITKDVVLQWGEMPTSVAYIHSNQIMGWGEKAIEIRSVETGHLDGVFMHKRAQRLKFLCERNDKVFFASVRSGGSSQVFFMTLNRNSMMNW
Sequence of Serine/threonine-protein kinase 38-like (Q9Y2H1 whole entry): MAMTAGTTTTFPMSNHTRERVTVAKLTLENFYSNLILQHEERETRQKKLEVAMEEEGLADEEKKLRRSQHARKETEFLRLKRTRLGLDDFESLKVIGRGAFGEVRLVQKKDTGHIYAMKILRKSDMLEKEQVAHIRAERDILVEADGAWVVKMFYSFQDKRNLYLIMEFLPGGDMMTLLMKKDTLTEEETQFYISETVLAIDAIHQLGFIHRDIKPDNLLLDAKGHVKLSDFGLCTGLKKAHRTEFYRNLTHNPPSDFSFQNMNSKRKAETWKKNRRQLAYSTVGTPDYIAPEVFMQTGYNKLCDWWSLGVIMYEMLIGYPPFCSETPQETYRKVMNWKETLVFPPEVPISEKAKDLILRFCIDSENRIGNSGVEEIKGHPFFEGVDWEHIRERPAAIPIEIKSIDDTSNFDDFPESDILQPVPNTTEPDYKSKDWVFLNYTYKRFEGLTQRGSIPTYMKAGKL

Structure (SMILES) | Kd [1] | Kd [2] | Kd [3] | Kd [4] | Kd [5] | Kd [6] | Kd [7] | Kd [8] | Kd [9] | Kd [10] | Kd [11] | Kd [12] | Kd [13] | Kd [14] | Kd [15] | Kd [16] | Kd [17]
Oc1ccc(-c2nc(-c3ccc(F)cc3)c(-c3ccncc3)[nH]2)cc1 [SB-202190] | 10 µM | – | – | – | – | – | – | – | – | – | – | – | – | – | – | – | –
CCOc1cc2ncc(C#N)c(Nc3ccc(F)c(Cl)c3)c2cc1NC(=O)/C=C/CN(C)C [PELITINIB] | – | 3.1 µM | 0.25 µM | 0.077 µM | 2.5 µM | 1.5 µM | 2.3 µM | 0.0037 µM | 2 µM | – | – | – | – | – | – | – | –
Oc1c2ccccc2c2c3c(cccc13)N=N2 [SP-600125] | 0.48 µM | 2.3 µM | 2.3 µM | – | 0.48 µM | – | 0.035 µM | – | – | 3.2 µM | 7.5 µM | 1 µM | 0.098 µM | 0.68 µM | 2.1 µM | 4.1 µM | 3.7 µM

Reference: ChEMBL document CHEMBL1144455, “A small molecule-kinase interaction map for clinical kinase inhibitors” (Nat Biotechnol, 2005)
